The conditions of the series: 101.33 kPa, Liquid; for mass density: Vibrating tube method; for viscosity: Concentric cylinders viscometry.

± gives the expanded uncertainty stated by the source.

The source of these data is the NIST ThermoML archive (doi:10.1016/j.jct.2018.10.026).

For orientation: mass density means mass per unit of volume. One may read the viscosity as the internal friction of a fluid under shear. As for `C[N+](C)(C)CCO.[O-]c1cccc2cccnc12` [choline 8-quinolinolate], the mass density is, setting by setting: (293.15 K) 1162.71 ± 6.5 kg/m3; (298.15 K) 1159.75 ± 6.5 kg/m3; (303.15 K) 1156.73 ± 6.4 kg/m3; (308.15 K) 1153.91 ± 6.4 kg/m3; (313.15 K) 1150.97 ± 6.4 kg/m3; (318.15 K) 1147.91 ± 6.4 kg/m3. Also, the mass density (323.15 K) is recorded as 1144.78 ± 6.4 kg/m3. Further, the viscosity reads like this: (303.15 K) 4870960 ± 1.2e+06 mPa·s; (308.15 K) 2363490 ± 570000 mPa·s; (313.15 K) 1331720 ± 310000 mPa·s; (318.15 K) 755840 ± 180000 mPa·s; (323.15 K) 338330 ± 77000 mPa·s.
As to `C[C@H](O)C(=O)[O-].C[N+](C)(C)CCO`, the viscosity (293.15 K) turned out to be 5513 ± 1200 mPa·s; the viscosity (298.15 K) turned out to be 3929 ± 820 mPa·s; the viscosity (303.15 K) came to 2903 ± 600 mPa·s; the viscosity (308.15 K) came out at 2207 ± 460 mPa·s; the viscosity (313.15 K) was determined as 1728 ± 360 mPa·s; the viscosity (318.15 K) is listed as 1368 ± 280 mPa·s. For the same molecule, the viscosity (323.15 K) is 1110 ± 230 mPa·s. Besides, the mass density worked out at 1137.33 ± 11 kg/m3 (293.15 K); 1133.94 ± 11 kg/m3 (298.15 K); 1130.52 ± 11 kg/m3 (303.15 K); 1127.05 ± 11 kg/m3 (308.15 K); 1123.55 ± 11 kg/m3 (313.15 K); 1120.11 ± 11 kg/m3 (318.15 K). The mass density (323.15 K) turned out to be 1116.7 ± 11 kg/m3.
